Reference: ChEMBL document CHEMBL4651402, “Screening of ~5500 FDA-approved drugs and clinical candidates for anti-SARS-CoV-2 activity” (2021)

Tested on: SARS-CoV-2
Assay: microbe, parasite or virus in culture
Conditions: Severe acute respiratory syndrome coronavirus 2, Vero C1008, 48 h

| Structure (SMILES) | IC50 | IC50 (read-out: pIC50 (converted)) |
| --- | --- | --- |
| Cc1c(C(C)C)c(=O)n(-c2ccccc2)n1C [PROPYPHENAZONE] | > 20 µM | > 20 µM |
| Cc1oc(-c2ccccc2)nc1CCOc1ccc(CC2C(=O)NOC2=O)cc1 (configuration not stated) [REGLITAZAR] | > 20 µM | > 20 µM |
| CCCCCCCCCCCCCCCC(=O)O [PALMITIC ACID] | > 20 µM | > 20 µM |
| COC(=O)CCc1ccc(OCC(O)CNC(C)C)cc1 (configuration not stated) [ESMOLOL] | > 20 µM | > 20 µM |
| COc1cccc(N(C)C(=S)Oc2ccc3c(c2)CCCC3)n1 [LIRANAFTATE] | > 20 µM | > 20 µM |
| C[C@H](Cc1ccc2c(c1)OC(C(=O)O)(C(=O)O)O2)NC[C@H](O)c1cccc(Cl)c1 | > 20 µM | > 20 µM |
| OC[C@H]1O[C@@H](n2cnc3c(NCc4ccco4)ncnc32)[C@H](O)[C@@H]1O [KINETIN RIBOSIDE] | > 20 µM | > 20 µM |
| CC(N)C(O)c1cccc(O)c1 (configuration not stated) | > 20 µM | > 20 µM |
| COc1ccc(S(=O)(=O)N2C(=O)[C@@](c3ccccc3OC)(N3C[C@H](O)C[C@H]3C(=O)N(C)C)c3cc(Cl)ccc32)c(OC)c1 | > 20 µM | > 20 µM |
| CN1CCOC(c2ccccc2)c2ccccc2C1 (configuration not stated) [NEFOPAM] | > 20 µM | > 20 µM |
| O=S(=O)(O)c1ccc2ccccc2c1 | > 20 µM | > 20 µM |
| Cc1cc(CC(=O)O)n(C)c1[14C](=O)c1ccc(Cl)cc1 | > 20 µM | > 20 µM |
| N[C@H]1C[C@@H]1c1ccccc1 [(+)-TRANYLCYPROMINE] | > 20 µM | > 20 µM |
| CCn1ccnc1CC1COc2ccccc2O1 (configuration not stated) [IMILOXAN] | > 20 µM | > 20 µM |
| COP(=O)(c1cc(C)cc(/C=C/C#N)c1)c1c(C(N)=O)[nH]c2ccc(Cl)cc12 (configuration not stated) | > 20 µM | > 20 µM |
| COc1cc(O)c(C(C)=O)c(OC)c1 [XANTHOXYLIN] | > 20 µM | > 20 µM |
| O=C(O)[C@H]1C[C@H]([C@H]2CCCCN2)CN2CCCC[C@H]12 | > 20 µM | > 20 µM |
| CC(=O)NC(CC(=O)O)C(=O)O (configuration not stated) | > 20 µM | > 20 µM |
| CC(=O)c1cnc2ccc(-c3cc(Cl)c(O)c(Cl)c3)nc2c1N[C@H]1CC[C@H](CN(C)C)CC1 | > 20 µM | > 20 µM |
| Cc1ccc2c(c1)[C@H]1CN(C)CC[C@H]1N2 [STOBADINE] | > 20 µM | > 20 µM |
| NC(=O)Cc1cccc(C(=O)c2ccccc2)c1N | > 20 µM | > 20 µM |
| Clc1ccc(Nc2nnc(Cc3ccncc3)c3ccccc23)cc1 [VATALANIB] | > 20 µM | > 20 µM |
| CCN(CC)CCNC(=O)N(CCS(=O)(=O)c1ccccc1)C(C)C [SURICAINIDE] | > 20 µM | > 20 µM |
| Cn1c(=O)n(-c2ccc(C(C)(C)C#N)cc2)c2c3cc(-c4cnc5ccccc5c4)ccc3ncc21 [DACTOLISIB] | > 20 µM | > 20 µM |
| CCN(CCCCOC(=O)c1ccc(OC)c(OC)c1)C(C)Cc1ccc(OC)cc1 (configuration not stated) [MEBEVERINE] | > 20 µM | > 20 µM |
| CN1CCC(=C2c3ccccc3CCc3cccnc32)CC1 [AZATADINE] | > 20 µM | > 20 µM |

| Structure (SMILES) | IC50 | IC50 (read-out: pIC50 (converted)) |
| --- | --- | --- |
| CCCC(=O)Nc1ccc(OCC(O)CNC(C)C)c(C(C)=O)c1 (configuration not stated) [ACEBUTOLOL] | > 20 µM | > 20 µM |
| COc1ccc(CC(N)C(=O)NC2C(CO)OC(n3cnc4c(N(C)C)ncnc43)C2O)cc1 (configuration not stated) | > 20 µM | > 20 µM |
| CO[C@H]1/C=C/O[C@@]2(C)Oc3c(C)c(O)c4c(O)c(c(/C=N/N5CCN(C)CC5)c(O)c4c3C2=O)NC(=O)/C(C)=C\C=C\[C@H](C)[C@H](O)[C@@H](C)[C@@H](O)[C@@H](C)[C@H](OC(C)=O)[C@@H]1C [RIFAMPIN] | > 20 µM | > 20 µM |
| NS(=O)(=O)NCCNc1nonc1/C(=N/O)Nc1ccc(F)c(Br)c1 [EPACADOSTAT] | > 20 µM | > 20 µM |
| NCCc1c[nH]c2ccc(O)cc12 [SEROTONIN] | > 20 µM | > 20 µM |
| O=C(O)Cc1c[nH]cn1 [IMIDAZOLE ACETIC ACID] | > 20 µM | > 20 µM |
| CN[C@@H](C)Cc1ccccc1 [METHAMPHETAMINE] | > 20 µM | > 20 µM |
| OC[C@H]1OC(O)[C@H](O)[C@@H](O)[C@@H]1O (some centres not stated) [DEXTROSE] | > 20 µM | > 20 µM |
| CCO[C@@H]1O[C@@H]2O[C@@]3(C)CC[C@@H]4[C@H](C)CC[C@@H]([C@H]1C)[C@@]24OO3 | > 20 µM | > 20 µM |
| CO[C@@H]1[C@@H](OC(N)=O)[C@@H](O)[C@H](Oc2ccc3c(O)c(NC(=O)c4ccc(O)c(CC=C(C)C)c4)c(=O)oc3c2C)OC1(C)C [NOVOBIOCIN] | > 20 µM | > 20 µM |
| CC12CCC(=O)C(O)=C1CCC1C2CCC2(C)C1CC[C@]2(C)O (some centres not stated) | > 20 µM | > 20 µM |
| CC(C)Cc1ccc(C(C)C(=O)O)cc1 (configuration not stated) [IBUPROFEN] | > 20 µM | > 20 µM |
| NC(CSCC(=O)O)C(=O)O (configuration not stated) | > 20 µM | > 20 µM |
| NCCC(O)C(=O)N[C@@H]1C[C@H](N)[C@@H](OC2O[C@H](CN)[C@@H](O)[C@H](O)[C@H]2N)[C@H](OC2O[C@H](CO)C(O)[C@H]2O)[C@H]1O (some centres not stated) | > 20 µM | > 20 µM |
| CCN(CC)CC(OC(=O)c1ccccc1)c1ccccc1 (configuration not stated) [ELUCAINE] | > 20 µM | > 20 µM |
| O=C(O)CC(O)C(=O)O (configuration not stated) [MALIC ACID] | > 20 µM | > 20 µM |
| COP(=O)(OC)OC(c1ccc(Cl)cc1)P(=O)(OC)OC (configuration not stated) [MIFOBATE] | > 20 µM | > 20 µM |
| NC(Cc1c[nH]c2ccc(O)cc12)C(=O)O (configuration not stated) | > 20 µM | > 20 µM |
| C=C(CC)C(=O)c1ccc(OCC(=O)O)c(Cl)c1Cl [ETHACRYNIC ACID] | > 20 µM | > 20 µM |
| CCCCCCCCCCCCCC(=O)O[C@@H]1[C@@H](C)[C@@]2(O)[C@@H](C=C(CO)C[C@]3(O)C(=O)C(C)=C[C@@H]23)[C@@H]2C(C)(C)[C@]12OC(C)=O [PHORBOL MYRISTATE ACETATE] | > 20 µM | > 20 µM |
| CN1CCC(c2c[nH]c3ccc(NC(=O)c4ccc(F)cc4)cc23)CC1 | > 20 µM | > 20 µM |
| Cc1cc(Nc2ncc(Cl)c(Nc3ccccc3S(=O)(=O)C(C)C)n2)c(OC(C)C)cc1C1CCNCC1 [CERITINIB] | > 20 µM | > 20 µM |
| CS(=O)(=O)c1ccc([C@@H](O)[C@@H](CO)NC(=O)C(Cl)Cl)cc1 [THIAMPHENICOL] | > 20 µM | > 20 µM |
| NCCCC[C@H](N[C@@H](CCc1ccccc1)C(=O)O)C(=O)N1CCC[C@H]1C(=O)O [LISINOPRIL ANHYDROUS] | > 20 µM | > 20 µM |
| CCOC(=O)C1=C(C)NC(C)=C(C(=O)OC)C1c1cccc(Cl)c1Cl (configuration not stated) [FELODIPINE] | > 20 µM | > 20 µM |
| CN1CCN(Cc2ccc(Nc3ncc(Cl)c(Nc4ccccc4S(=O)(=O)N(C)C)n3)cc2)CC1 [DUBERMATINIB] | > 20 µM | > 20 µM |

| Structure (SMILES) | IC50 | IC50 (read-out: pIC50 (converted)) |
| --- | --- | --- |
| Cc1c[nH]c2ccccc12 | > 20 µM | > 20 µM |
| CC12CCC(C(C(=O)O)C1=O)C2(C)C (configuration not stated) | > 20 µM | > 20 µM |
| CC1(C)CC=C(c2nc(C3CC(C)(C)OC(C)(C)C3)ccc2NC(=O)c2nc(C#N)c[nH]2)CC1 [EDICOTINIB] | > 20 µM | > 20 µM |
| CC[C@@]1(c2ccccc2)NC(=O)N(C)C1=O | > 20 µM | > 20 µM |
| O=C1CN(/N=C/c2ccc([N+](=O)[O-])o2)C(=O)N1 [NITROFURANTOIN] | > 20 µM | > 20 µM |
| Cc1cn(C2CC(N=[N+]=[N-])C(CO)O2)c(=O)nc1N (configuration not stated) | > 20 µM | > 20 µM |
| CC(=O)OC1C([N+]2(C)CCCCC2)CC2C3CC[C@H]4C[C@H](OC(C)=O)C([N+]5(C)CCCCC5)CC4(C)C3CCC21C (some centres not stated) | > 20 µM | > 20 µM |
| CC[C@H]1OC(=O)C[C@@H](O)[C@H](C)[C@@H](O[C@@H]2O[C@H](C)[C@@H](O[C@H]3C[C@@](C)(O)[C@@H](O)[C@H](C)O3)[C@H](N(C)C)[C@H]2O)[C@@H](CC=O)C[C@@H](C)C(=O)/C=C\C(C)=C/[C@@H]1CO[C@@H]1O[C@H](C)[C@@H](O)[C@@H](OC)[C@H]1OC | > 20 µM | > 20 µM |
| CCCCCCCCCCCCCCCC(=O)OCC(O)CO (configuration not stated) [GLYCEROL MONOPALMITATE] | > 20 µM | > 20 µM |
| Cc1ccccc1OCC(O)CNCCn1cc(C)c(=O)[nH]c1=O (configuration not stated) [PRIMIDOLOL] | > 20 µM | > 20 µM |
| CCN(CC)CCOC(=O)c1ccc(N)cc1 [PROCAINE] | > 20 µM | > 20 µM |
| O=C(O)CCCC[C@H]1SC[C@H]2NC(=O)N[C@H]21 | > 20 µM | > 20 µM |
| Oc1ccc(C(O)C2CCCCN2)cc1O (configuration not stated) [RIMITEROL] | > 20 µM | > 20 µM |
| O=C1Nc2ccccc2/C1=C1/Nc2ccccc2C1=O [INDIRUBIN] | > 20 µM | > 20 µM |
| CN1CCC(N(Cc2cccs2)c2ccccc2)CC1 [THENALIDINE] | > 20 µM | > 20 µM |
| N[C@H](Cn1ccc(=O)c(O)c1)C(=O)O | > 20 µM | > 20 µM |
| C[C@]12CC[C@@H]3c4ccc(O)cc4C[C@@H](CCCCCCCCC[S+]([O-])CCCC(F)(F)C(F)(F)F)[C@H]3[C@@H]1CC[C@@H]2O (some centres not stated) [FULVESTRANT] | > 20 µM | > 20 µM |
| Cc1nnc2n1-c1ccc(Cl)cc1C(c1ccccc1)=NC2 [ALPRAZOLAM] | > 20 µM | > 20 µM |
| C[C@@H]1CCN(C(=O)CC#N)C[C@@H]1N(C)c1ncnc2[nH]ccc12 [TOFACITINIB] | > 20 µM | > 20 µM |
| O=S(=O)(O)NC1CCCCC1 [CYCLAMIC ACID] | > 20 µM | > 20 µM |
| Nc1nncs1 | > 20 µM | > 20 µM |
| CN(C)C1C(O)=C(C(N)=O)C(=O)C2(O)C(O)=C3C(=O)c4c(O)ccc(Cl)c4C(C)(O)C3CC12 (configuration not stated) | > 20 µM | > 20 µM |
| CC1NC(=O)COC1c1ccccc1 (configuration not stated) [FENMETRAMIDE] | > 20 µM | > 20 µM |
| c1ccc2c(CCC3CCNCC3)c[nH]c2c1 [INDALPINE] | > 20 µM | > 20 µM |
